Values joined by “and” are separate entries in the source; they are usually repeats but may differ in a detail not shown here. Equal entries are not always repeated.
Legend:
Assay in all cases: viability inhibition at highest dose (% inhibition); higher = more growth inhibition
[1] = test system: BT-474 Tam1; details: 4-OH-tamoxifen in medium 1 µM; 72 h
Experimental: (§1)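 Percent inhibition of viability (CellTiter-Glo, 72 h) at the highest tested concentration (D5), normalised to DMSO (0%) and 100 µM benzethonium chloride (100%). Resistant lines and the 'in 1µM tamoxifen' arms were tested in 1 µM 4-OH-tamoxifen.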

[2] = test system: BT-474 Tam2; details: 4-OH-tamoxifen in medium 1 µM; 72 h
Experimental: as §1

[3] = test system: BT-474; details: 72 h
Experimental: as §1

[4] = test system: MCF-7 Tam1; details: 4-OH-tamoxifen in medium 1 µM; 72 h
Experimental: as §1

[5] = test system: MCF-7; details: 72 h
Experimental: as §1

[6] = test system: T-47D Tam1; details: 4-OH-tamoxifen in medium 1 µM; 72 h
Experimental: as §1

[7] = test system: T-47D Tam2; details: 4-OH-tamoxifen in medium 1 µM; 72 h
Experimental: as §1

[8] = test system: T-47D; details: 72 h
Experimental: as §1

[9] = test system: ZR-75-1 Tam1; details: 4-OH-tamoxifen in medium 1 µM; 72 h
Experimental: as §1

[10] = test system: ZR-75-1 Tam2; details: 4-OH-tamoxifen in medium 1 µM; 72 h
Experimental: as §1

[11] = test system: ZR-75-1; details: 72 h
Experimental: as §1

SMILES	viability inhibition at highest dose [1]	viability inhibition at highest dose [2]	viability inhibition at highest dose ([3]; 4-OH-tamoxifen in medium 0 µM)	viability inhibition at highest dose ([3]; 4-OH-tamoxifen in medium 1 µM)	viability inhibition at highest dose [4]	viability inhibition at highest dose ([5]; 4-OH-tamoxifen in medium 0 µM)	viability inhibition at highest dose ([5]; 4-OH-tamoxifen in medium 1 µM)	viability inhibition at highest dose [6]	viability inhibition at highest dose [7]	viability inhibition at highest dose ([8]; 4-OH-tamoxifen in medium 0 µM)	viability inhibition at highest dose ([8]; 4-OH-tamoxifen in medium 1 µM)	viability inhibition at highest dose [9]	viability inhibition at highest dose [10]	viability inhibition at highest dose ([11]; 4-OH-tamoxifen in medium 0 µM)	viability inhibition at highest dose ([11]; 4-OH-tamoxifen in medium 1 µM)
Cc1ccc(C(=O)N(CCCN)[C@@H](c2oc3cc(Cl)ccc3c(=O)c2Cc2ccccc2)C(C)C)cc1 (drug 100 nM)	-6.24	-0.695	-10.2	-22.8	-9.67	5.45	19.8	-2.81	7.13	-16.7	-5.16	-7.2	-13.3	-10.8	-9.18
CC(=O)Nc1cccc(-n2c(=O)n(C3CC3)c(=O)c3c(Nc4ccc(I)cc4F)n(C)c(=O)c(C)c32)c1 (drug 250 nM)	8.35	-15.8	-8.37	18.2	10.6	2.23	17.3	12.5	26.5	-2.33	10.4	2.29	1.99	-3.05	5.16
C=CC(=O)N1CCC[C@@H](n2nc(-c3ccc(Oc4ccccc4)cc3)c3c(N)ncnc32)C1 (drug 1000 nM)	98.2	96.5	69.5	94.6	-17.1	-5.41	23	19.8	14.1	-1.5	-2.82	1.82	5.37	7.99	7.55
CCN(CC)CCNC(=O)c1c(C)[nH]c(/C=C2\C(=O)Nc3ccc(F)cc32)c1C (drug 1000 nM)	13.8	1.68	-3.86	33.8	7.78	-3.88	-9.09	6.06	3.79	-6.3	13.4	-5.76	2.39	5.31	-5.7
CN1CCC(COc2cnc(-c3cccc(Cn4nc(-c5cccc(C#N)c5)ccc4=O)c3)nc2)CC1 (drug 1000 nM)	4.43	8.15	2.72	-6.04	7.93	-4.34	13.2	57.5	-1.11	-10.4	-5.78	0.277	-3.94	-2.72	2.17
COc1ncc(-c2ccc3nccc(-c4ccnnc4)c3c2)cc1NS(=O)(=O)c1ccc(F)cc1F (drug 1000 nM)	98.5	98	90	97.1	60.1	68.6	85	69.3	78	71.6	77.9	83	86.4	76.9	72.3
Cc1ccc(C(=O)Nc2ccc(CN3CCN(C)CC3)c(C(F)(F)F)c2)cc1C#Cc1cnc2cccnn12 (drug 1000 nM)	35.9	6	-2.54	36.2	12.7	11.5	25.9	70.1	37.9	20.5	33.7	12.3	12	3.08	12
Cc1cccc(-c2nn3c(c2-c2ccnc4ccc(C(N)=O)cc24)CCC3)n1 (drug 1000 nM)	-3.5	-0.548	-8.01	-14	-5.09	-2	17.5	8.11	-11.8	-10.5	-3.66	-1.45	0.591	-10.5	-14.4
Cc1cnc(NC(=O)Nc2cc(Br)c(C)cc2OC[C@@H]2CNCCO2)cn1 (drug 1000 nM)	5	-6.01	-10.6	0.148	-4.01	26.1	16.2	-0.37	-5.37	-9.68	-8.57	-1.46	-1.67	-7.46	-6.55
Cn1cc(CNCC2CCN(c3ncc(C(=O)NO)cn3)CC2)c2ccccc21 (drug 1000 nM)	83.8	74.7	88.3	94.3	21.6	89.3	90	86.6	71.1	94.3	94.1	37.4	48.7	47.6	37.9
CC(=O)c1c(C)c2cnc(Nc3ccc(N4CCNCC4)cn3)nc2n(C2CCCC2)c1=O (drug 10000 nM)	6.18	9.88	1.33	4.19	21.2	33.1	27.9	29.5	21.5	28.1	0.74	18.7	24.2	2.14	20.6
CCc1cncnc1N1CCN(Cc2nc3ccc(C(F)(F)F)cc3[nH]2)CC1 (drug 10000 nM)	68.5	41.4	36	53.7	20.7	37.2	33.2	33.4	31	33	15.3	17.9	25.5	18.5	28.3
CN(C)C[C@@H]1CCn2cc(c3ccccc32)C2=C(C(=O)NC2=O)c2cn(c3ccccc23)CCO1 (drug 10000 nM)	100	98	76	101	22.1	99.8	69.5	71.2	70.2	72.1	97.4	37.7	47.1	45.5	70.9
CNCc1ccc(-c2[nH]c3cc(F)cc4c3c2CCNC4=O)cc1 (drug 10000 nM)	2.87	-16.6	-3.44	-1.93	-2.56	6.6	1.15	1.19	6.84	-7.27	-9.52	-4.62	0.703	-4.71	-4.07
CO[C@@H](C(=O)N1Cc2[nH]nc(NC(=O)c3ccc(N4CCN(C)CC4)cc3)c2C1)c1ccccc1 (drug 10000 nM)	-17.9	-18.2	-18.6	-36.3	8.32	20.9	7.45	38.4	34.4	29.4	17.6	-23.1	-19.5	-27.9	-21.1
COc1cc(Nc2ncc(F)c(Nc3ccc4c(n3)N(COP(=O)(O)O)C(=O)C(C)(C)O4)n2)cc(OC)c1OC (drug 10000 nM)	55.4	2.03	-18	41.4	47.8	34.7	70.4	49.3	47.1	40.2	36.8	28.5	31.6	7.12	20.8
COc1ccc(-c2cc3c(C)nc(N)nc3n([C@H]3CC[C@H](OCCO)CC3)c2=O)cn1 (drug 10000 nM)	100	94.3	96.1	100	67.1	79.9	82.6	92.6	88.2	94.6	93.7	86.8	88.1	83.5	76.1
C[C@@]1(C(=O)Nc2ccc(F)nc2)CCCN1c1nc(Nc2cc(C3CC3)n[nH]2)c2cccn2n1 (drug 10000 nM)	15.1	6.42	13	23.1	68.9	67.7	81.4	46.5	59.2	48.6	41.9	-16.4	-9.78	-26.3	-1.41
Cc1cc(Nc2cc(CN3CCOCC3)c3nc(C)c(Cc4ccc(Cl)cc4F)n3n2)n[nH]1 (drug 10000 nM)	96.7	96.4	5.76	66.4	47.8	66.7	68	45.6	46.2	21.2	24.4	-2.02	16.8	-23.2	0.926
Cn1cc(C2=Nc3cc(NC(=O)C(N)C4CCCCC4)cc4c3C2=CNNC4=O)cn1 (stereo not given) (drug 10000 nM)	3.49	-6.26	3.65	-3.68	1.36	31	12.3	28.7	26.5	4.48	28.4	-5.99	-2.91	8.7	-11.4
N#CC[C@H](C1CCCC1)n1cc(-c2ncnc3[nH]ccc23)cn1 (drug 10000 nM)	-28.1	-31.9	-21.3	-53.3	-11.4	1.33	-20.6	-14.3	-5.81	-12.9	-14.9	-14.2	-7.38	-0.421	-1.41
N#Cc1ccc(COC[C@H]2O[C@@H](n3c(NCc4ccc(Cl)c(Cl)c4)nc4c(N)ncnc43)[C@H](O)[C@@H]2O)cc1 (drug 10000 nM)	49.5	38.6	20.7	65.8	25.6	46.5	49.6	48	34.5	42.5	29	46.4	51.2	55.3	49.5
NC(=O)c1ccc(I)c([N+](=O)[O-])c1 (drug 10000 nM)	-6.12	-6.48	3.04	-11	2	2.33	-5.76	7.73	14.7	-4.63	-1.38	7.66	-0.492	-1.66	4.93
O=C(NC[C@H](O)CO)c1ccncc1Nc1ccc(I)cc1F (drug 10000 nM)	13.6	6.28	17.2	48	12.7	35.6	19.8	35.6	34	10.4	-8.51	2.34	7.84	7.13	10
c1ccc2c(CCNc3ccc(Nc4ccncc4)cc3)c[nH]c2c1 (drug 10000 nM)	91.8	37.9	-5.93	78	12.8	62.4	22.2	20.6	22.6	16.5	9.19	21.8	32.2	14	25.5
Nc1nc(=O)c2c([nH]1)NCC(CNc1ccc(C(=O)N[C@@H](CCC(=O)O)C(=O)O)cc1)N2C=O (mixture of isomers) [Folinic acid] (drug 990000 nM)	3.17	3.09	1.3	-8.34	-1.58	0.626	3.23	-0.031	-14.6	3.41	-2.78	1.59	5.23	3.64	-3.47
COc1cc2c(cc1O)CC[C@@H]1[C@@H]2CC[C@]2(C)[C@@H](O)CC[C@@H]12 [2-methoxyestradiol  (Panzem)] (drug 10000 nM)	27.1	24.3	48.9	63.3	-11.2	24.8	17.7	24.5	29.8	32.6	-2.41	6.41	3.21	36.8	2.3
CC/C(=C(\c1ccc(O)cc1)c1ccc(OCCN(C)C)cc1)c1ccccc1 [4-hydroxytamoxifen] (drug 10000 nM)	97.8	96	23.3	97.2	46.3	52.3	83.1	38.4	79.7	20.4	59	17.8	21.5	8.03	33.1
Cc1nc(Nc2ncc(C(=O)Nc3c(C)cccc3Cl)s2)cc(N2CCN(CCO)CC2)n1 [Dasatinib] (drug 1000 nM)	37.1 and 33.4	–	–	1.98 and 3.29	–	–	12.7 and 8.15	35.9 and 30.8	35.6 and 31.4	–	30.8 and 16.6	-34.5 and -23.8	-36.2 and -32.2	-61.6 and -72.5	-39.5 and -41.9

From the supplement of paper PMC4932681
